Read-outs that look alike come from different tables or passages of the source. Starred links: 1 amine or outer side, 2 acyl side, 3 side chain; linkers in the order of their positions; H or OH if unused. Non-standard residues stand in square brackets, D forms with d. Residues, ends and D or L forms follow the SMILES beside them. Groups on a side chain read outwards from the residue. *: point of attachment. C18 diacid = O=C(O)CCCCCCCCCCCCCCCCC(=O)*; αMePhe(2-F) = C[C@](N)(Cc1ccccc1F)C(=O)O; γGlu = O=C(O)[C@H](CCC(=O)[*:2])N[*:1]; αMe4Pal = C[C@](N)(Cc1ccncc1)C(=O)O; αMeY = C[C@](N)(Cc1ccc(O)cc1)C(=O)O; Hyp = O=C(O)[C@@H]1C[C@@H](O)CN1; αMeF = C[C@](N)(Cc1ccccc1)C(=O)O; 4Pal = N[C@@H](Cc1ccncc1)C(=O)O; αMeL = CC(C)C[C@](C)(N)C(=O)O; αMeS = C[C@](N)(CO)C(=O)O; Orn = NCCC[C@H](N)C(=O)O; AEEA = NCCOCCOCC(=O)O; Aib = CC(C)(N)C(=O)O
Legend:
Assay type in all cases: cell-based
hGIPR [1] = target: T1, hGIPR (Homo sapiens, UniProt P48546); test: Functional cAMP activity in the presence of 1% HSA; conditions: read-out: cAMP Rel EC50, hGIPR
T1 sequence (P48546 22-466): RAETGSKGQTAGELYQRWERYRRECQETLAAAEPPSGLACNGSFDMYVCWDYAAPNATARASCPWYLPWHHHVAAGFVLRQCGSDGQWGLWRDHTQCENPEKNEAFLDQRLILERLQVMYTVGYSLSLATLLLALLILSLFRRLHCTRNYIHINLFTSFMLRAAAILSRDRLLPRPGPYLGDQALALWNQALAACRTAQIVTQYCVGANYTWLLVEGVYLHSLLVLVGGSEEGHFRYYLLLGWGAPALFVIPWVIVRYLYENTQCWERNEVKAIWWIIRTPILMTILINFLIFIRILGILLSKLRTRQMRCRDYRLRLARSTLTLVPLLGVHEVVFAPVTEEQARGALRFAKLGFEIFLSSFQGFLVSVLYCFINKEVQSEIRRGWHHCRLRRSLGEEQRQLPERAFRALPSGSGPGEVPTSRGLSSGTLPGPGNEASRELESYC

hGLP-1R [2] = target: T2, hGLP-1R (Homo sapiens, UniProt P43220); test: Functional cAMP activity in the presence of 1% HSA; conditions: read-out: cAMP Rel EC50, hGLP-1R
human GcgR = human GcgR (Homo sapiens, UniProt P47871); test: Functional cAMP activity in the presence of 1% HSA; conditions: read-out: cAMP Rel EC50, hGcgR
hGIPR [3] = target: T1, hGIPR; test: Functional cAMP activation in the presence of 0.1% casein (no HSA); conditions: read-out: Relative cAMP EC50, hGIPR;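 as to Relative cAMP EC50, hGIPR: intracellular cAMP rise after 30 min at 37 °C read by HTRF against a standard curve, scaled between buffer alone (0%) and top control ligand concentration (100%), four-parameter fit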;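 as to Relative cAMP EC50, hGLP-1R: intracellular cAMP rise after 30 min at 37 °C read by HTRF, normalized between buffer only (0%) and maximal control ligand (100%), four-parameter variable-slope fit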;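 as to Relative cAMP EC50, hGcgR: intracellular cAMP rise after 30 min at 37 °C, read by HTRF against a cAMP standard curve, scaled from buffer only (0%) to maximal control ligand response (100%)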
hGLP-1R [4] = target: T2, hGLP-1R; test: as above; conditions: read-out: Relative cAMP EC50, hGLP-1R
hGcgR = hGcgR (Homo sapiens, UniProt P47871); test: as above; conditions: read-out: Relative cAMP EC50, hGcgR;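 also: intracellular cAMP rise after 30 min at 37 °C, read by HTRF against a cAMP standard curve, scaled from buffer only (0%) to maximal control ligand response (100%)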
[5] = in the presence of 0.1% casein (no HSA), geometric mean
[6] = HEK-293 clonal cell line, 1% HSA, geometric mean of relative EC50
[7] = in the presence of 0.1% casein (no HSA), geometric mean of relative EC50
[8] = 0.1% casein, no HSA, geometric mean

Chain of human GcgR (P47871 26-477): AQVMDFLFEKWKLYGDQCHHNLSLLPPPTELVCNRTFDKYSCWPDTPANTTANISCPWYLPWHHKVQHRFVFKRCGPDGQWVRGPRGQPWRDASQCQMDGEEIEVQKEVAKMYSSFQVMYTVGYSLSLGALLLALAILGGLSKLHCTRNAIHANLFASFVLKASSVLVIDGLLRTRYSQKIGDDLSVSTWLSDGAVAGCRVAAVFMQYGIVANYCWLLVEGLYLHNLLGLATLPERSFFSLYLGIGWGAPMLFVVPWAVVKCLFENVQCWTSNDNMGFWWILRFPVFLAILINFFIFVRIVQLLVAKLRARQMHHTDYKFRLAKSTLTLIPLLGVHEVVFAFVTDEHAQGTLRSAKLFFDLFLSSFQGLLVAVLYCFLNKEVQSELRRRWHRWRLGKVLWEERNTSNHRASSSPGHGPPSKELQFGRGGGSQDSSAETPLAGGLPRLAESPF
Chain of hGcgR (P47871 26-477): as above
T2 sequence (P43220 24-463): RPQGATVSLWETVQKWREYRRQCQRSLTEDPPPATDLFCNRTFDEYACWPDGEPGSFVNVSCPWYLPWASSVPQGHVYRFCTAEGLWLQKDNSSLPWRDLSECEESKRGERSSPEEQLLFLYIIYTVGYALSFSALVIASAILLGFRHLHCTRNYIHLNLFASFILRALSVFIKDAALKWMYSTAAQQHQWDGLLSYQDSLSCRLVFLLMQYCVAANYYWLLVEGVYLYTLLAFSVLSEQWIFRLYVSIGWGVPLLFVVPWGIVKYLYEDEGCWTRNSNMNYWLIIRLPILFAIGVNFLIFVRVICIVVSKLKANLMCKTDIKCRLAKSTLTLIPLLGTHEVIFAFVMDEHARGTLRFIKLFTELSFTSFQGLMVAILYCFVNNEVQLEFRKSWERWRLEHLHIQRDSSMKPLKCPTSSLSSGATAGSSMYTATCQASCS

| Compound | EC50 (hGIPR [1]) [nM] | EC50 (hGLP-1R [2]) [nM] | EC50 (human GcgR) [nM] | EC50 (hGIPR [3]; [5]) [nM] | EC50 (hGLP-1R [4]; [5]) [nM] | EC50 (hGcgR; [5]) [nM] | other results |
| --- | --- | --- | --- | --- | --- | --- | --- |
| H-Y[Aib]QGT[αMePhe(2-F)]TSD[4Pal][αMeS]I[αMeL]LD[Orn]K([γGlu-Glu-C18 diacid])AQ[Aib][Orn]FI[dE][αMeY]LSEGGPSSGEPPPSGTE-NH2 [Example 565] | 21.9 | 204 | 1770 | – | – | – | EC50 (hGIPR [3]): 0.107 nM; EC50 (hGLP-1R [4]): 1.24 nM; EC50 (hGcgR): 10.3 nM |
| H-Y[Aib]QGT[αMeF]TSD[4Pal][αMeS]I[αMeL]LD[Orn]K([γGlu-γGlu-C18 diacid])AQ[αMe4Pal]EFI[dE][αMeY]LIEGGPSSGEPPPSGSE-NH2 [Example 1173] | 0.764 | 59.1 | 254 | 0.00943 | 0.604 | 2.31 | – |
| H-Y[Aib]QGTFTSDFS[Orn][αMeL]LDKK([AEEA-γGlu-C18 diacid])AQ[αMe4Pal]AFIE[αMeY]LIEGGPSSGAPPPSGS-NH2 [Example 845] | 23.3 | 89.1 | 203 | 0.178 | 0.161 | 0.626 | – |
| H-Y[Aib]QGTFTSD[4Pal]SQ[αMeL]LDKK([Glu-Glu-γGlu-C18 diacid])AQ[αMe4Pal]AFIEYLIAGGPSSGAPPPSGEEE-NH2 [Example 1090] | 27.3 | 619 | 2010 | 0.272 | 5.44 | 15.6 | – |
| H-Y[Aib]QGTFTSD[4Pal]SR[αMeL]LDKK([AEEA-γGlu-C18 diacid])AQ[αMe4Pal]AFIE[αMe4Pal]LIEGGPSSGAPPPSGSEE-NH2 [Example 956] | 32.1 | 643 | 406 | 0.26 | 4.83 | 2.17 | – |
| H-Y[Aib]QGTFTSDFS[Orn][αMeL]LDKK([AEEA-γGlu-C18 diacid])AQ[Aib]AFIEYLLEGG[Hyp]SSGAPPPGGS-NH2 [Example 234] | 31.1 | 604 | 702 | 0.322 | 4.72 | 7.87 | – |
| H-Y[Aib]QGT[αMePhe(2-F)]TSD[4Pal][αMeS]I[αMeL]LD[Orn]K([AEEA-γGlu-C18 diacid])AQ[αMe4Pal]EFI[dE][αMeY]LIEGGPSSGEPPPEGE-NH2 [Example 1149] | 0.96 | 52.2 | 184 | 0.00804 | 0.352 | 1.37 | – |
| CC[C@H](C)[C@H](NC(=O)[C@H](Cc1ccccc1)NC(=O)[C@H](C)NC(=O)C(C)(C)NC(=O)[C@H](CCC(N)=O)NC(=O)[C@H](C)NC(=O)[C@H](CCCCNC(=O)COCCOCCNC(=O)CC[C@H](NC(=O)CCCCCCCCCCCCCCCCC(=O)O)C(=O)O)NC(=O)[C@H](CCCCN)NC(=O)[C@H](CC(=O)O)NC(=O)[C@H](CC(C)C)NC(=O)[C@H](CC(C)C)NC(=O)[C@@H](NC(=O)[C@H](CO)NC(=O)[C@H](Cc1ccc(O)cc1)NC(=O)[C@H](CC(=O)O)NC(=O)[C@H](CO)NC(=O)[C@@H](NC(=O)[C@](C)(Cc1ccccc1F)NC(=O)[C@@H](NC(=O)CNC(=O)[C@H](CCC(N)=O)NC(=O)C(C)(C)NC(=O)[C@@H](N)Cc1ccc(O)cc1)[C@@H](C)O)[C@@H](C)O)[C@@H](C)CC)C(=O)N[C@@H](CCC(=O)O)C(=O)N[C@@H](Cc1ccc(O)cc1)C(=O)N[C@@H](CC(C)C)C(=O)N[C@@H](CCC(=O)O)C(=O)N[C@@H](CCC(=O)O)C(=O)NCC(=O)NCC(=O)N1CCC[C@H]1C(=O)N[C@@H](CO)C(=O)N[C@@H](CO)C(=O)NCC(=O)N[C@@H](C)C(=O)N1CCC[C@H]1C(=O)N1CCC[C@H]1C(=O)N1CCC[C@H]1C(=O)N[C@@H](CO)C(=O)N[C@@H](CCC(=O)O)C(=O)NCC(N)=O [Example 398] | 12.4 | 42.2 | 375 | – | – | – | EC50 (hGIPR [3]): 0.0318 nM; EC50 (hGLP-1R [4]): 0.186 nM; EC50 (hGcgR): 2.16 nM |
| CC[C@H](C)[C@H](NC(=O)[C@H](CC(C)C)NC(=O)[C@](C)(Cc1ccc(O)cc1)NC(=O)[C@@H](CCC(=O)O)NC(=O)[C@@H](NC(=O)[C@H](Cc1ccccc1)NC(=O)[C@H](CCCN)NC(=O)C(C)(C)NC(=O)[C@H](CCC(N)=O)NC(=O)[C@H](C)NC(=O)[C@H](CCCCNC(=O)CC[C@H](NC(=O)CC[C@H](NC(=O)CCCCCCCCCCCCCCCCC(=O)O)C(=O)O)C(=O)O)NC(=O)[C@H](CCCN)NC(=O)[C@H](CC(=O)O)NC(=O)[C@H](CC(C)C)NC(=O)[C@](C)(CC(C)C)NC(=O)[C@@H](NC(=O)[C@](C)(CO)NC(=O)[C@H](Cc1ccncc1)NC(=O)[C@H](CC(=O)O)NC(=O)[C@H](CO)NC(=O)[C@@H](NC(=O)[C@](C)(Cc1ccccc1F)NC(=O)[C@@H](NC(=O)CNC(=O)[C@H](CCC(N)=O)NC(=O)C(C)(C)NC(=O)[C@@H](N)Cc1ccc(O)cc1)[C@@H](C)O)[C@@H](C)O)[C@@H](C)CC)[C@@H](C)CC)C(=O)N[C@@H](CCC(=O)O)C(=O)NCC(=O)NCC(=O)N1CCC[C@H]1C(=O)N[C@@H](CO)C(=O)N[C@@H](CO)C(=O)NCC(=O)N[C@@H](CCC(=O)O)C(=O)N1CCC[C@H]1C(=O)N1CCC[C@H]1C(=O)N1CCC[C@H]1C(=O)N[C@@H](CO)C(N)=O [Example 375] (H-Y[Aib]QGT[αMePhe(2-F)]TSD[4Pal][αMeS]I[αMeL]LD[Orn]K([γGlu-γGlu-C18 diacid])AQ[Aib][Orn]FI[dE][αMeY]LIEGGPSSGEPPPS-NH2) | 1.78 | 18 | 137 | 0.0165 | 0.299 | 1.32 | – |
| H-Y[Aib]QGTFTSDFS[Orn][αMeL]LDKK([AEEA-γGlu-C18 diacid])AQ[αMe4Pal]EFIEYLIE[Aib]GPSSGAPPPSGS-NH2 [Example 879] | 20.1 | 591 | 329 | 0.169 | 4 | 2.16 | – |
| H-Y[Aib]QGT[αMePhe(2-F)]TSD[4Pal]SI[αMeL]LDKK([γGlu-γGlu-C18 diacid])AQ[Aib][Orn]FIEYLQEGGPSSGEPPPEGSEE-NH2 [Example 653] | – | – | – | – | – | – | EC50 (hGIPR [1]; [6]): 1.38 nM; EC50 (hGLP-1R [2]; [6]): 25 nM; EC50 (human GcgR; [6]): 542 nM; EC50 (hGIPR [3]; [7]): 0.0303 nM; EC50 (hGLP-1R [4]; [7]): 0.426 nM; EC50 (hGcgR; [7]): 7.29 nM |
| H-Y[Aib]QGT[αMePhe(2-F)]TSD[4Pal][αMeS]I[αMeL]LD[Orn]QAQ[αMe4Pal]EFI[dE][αMeY]LIEGGPSSGAPPPSGSE-NH2 [Example 1233] | 0.00988 | 1.06 | 9.9 | – | – | – | EC50 (hGIPR [3]; [8]): 0.012 nM; EC50 (hGLP-1R [4]; [8]): 1.09 nM; EC50 (hGcgR; [8]): 9.48 nM |
| CC[C@H](C)[C@H](NC(=O)[C@H](Cc1ccccc1)NC(=O)[C@H](CCC(N)=O)NC(=O)C(C)(C)NC(=O)[C@H](CCC(N)=O)NC(=O)[C@H](C)NC(=O)[C@H](CCCCNC(=O)COCCOCCNC(=O)CC[C@H](NC(=O)CCCCCCCCCCCCCCCCCCC(=O)O)C(=O)O)NC(=O)[C@H](CCCCN)NC(=O)[C@H](CC(=O)O)NC(=O)[C@H](CC(C)C)NC(=O)[C@](C)(CC(C)C)NC(=O)[C@H](CCCCN)NC(=O)[C@H](CO)NC(=O)[C@H](Cc1ccccc1)NC(=O)[C@H](CC(=O)O)NC(=O)[C@H](CO)NC(=O)[C@@H](NC(=O)[C@H](Cc1ccccc1)NC(=O)[C@@H](NC(=O)CNC(=O)[C@H](CCC(N)=O)NC(=O)C(C)(C)NC(=O)[C@@H](N)Cc1ccc(O)cc1)[C@@H](C)O)[C@@H](C)O)C(=O)N[C@@H](CCC(=O)O)C(=O)N[C@@H](Cc1c[nH]c2ccccc12)C(=O)N[C@@H](CC(C)C)C(=O)N[C@@H](CC(C)C)C(=O)N[C@@H](CCC(=O)O)C(=O)NCC(=O)NCC(=O)N1CCC[C@H]1C(=O)N[C@@H](CO)C(=O)N[C@@H](CO)C(=O)NCC(=O)N[C@@H](C)C(=O)N1CCC[C@H]1C(=O)N1CCC[C@H]1C(=O)N1CCC[C@H]1C(=O)N[C@@H](CO)C(=O)N[C@@H](CCC(=O)O)C(=O)NCC(N)=O [Example 38] | 102 | 884 | 2770 | 0.304 | – | 9.5 | – |

— patent US20240270821A1, “GIP/GLP1/GCG TRI-RECEPTOR AGONISTS AND USES THEREOF” (priority 2023, published 2024)
